Source: ChEMBL document CHEMBL1201862, “PubChem BioAssay data set” (2004)
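These data come from cells grown in 96-well plates and exposed to compound for 48 hours at five concentrations. Abbreviation: GI50, concentration required for 50% inhibition of growth.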 Calls of active or inactive are those of the source. Rule as the data show it: active = GI50 up to about 1.1 µM and inactive = higher.

Assays:
Test in all cases: inhibition of tumour cell growth, NCI panel, 48 h
UO-31 = test system: UO-31
786-0 = test system: 786-0
ACHN = test system: ACHN
RXF 393 = test system: RXF 393
A498 = test system: A498
SF-295 = test system: SF-295
DLD-1 = test system: DLD-1
TK-10 = test system: TK-10
NCI-H226 = test system: NCI-H226
HOP-62 = test system: HOP-62
HT-29 = test system: HT-29
HCT-15 = test system: HCT-15
COLO 205 = test system: COLO 205
SNB-19 = test system: SNB-19
EKVX = test system: EKVX
NCI-H522 = test system: NCI-H522
OVCAR-5 = test system: OVCAR-5
DMS-114 = test system: DMS-114
KM12 = test system: KM12
LOX IMVI = test system: LOX IMVI
U-251 = test system: U-251
K562 = test system: K562
LXFL 529 = test system: LXFL 529
M19-MEL = test system: M19-MEL
XF498 = test system: XF498
SNB-78 = test system: SNB-78
KM-20L2 = test system: KM-20L2
UACC-257 = test system: UACC-257
A549 = test system: A549
OVCAR-8 = test system: OVCAR-8
HCC 2998 = test system: HCC 2998
SR = test system: SR
MOLT-4 = test system: MOLT-4
Malme-3M = test system: Malme-3M
HCT-116 = test system: HCT-116
NCI-H23 = test system: NCI-H23
SK-MEL-5 = test system: SK-MEL-5
RPMI-8226 = test system: RPMI-8226
OVCAR-4 = test system: OVCAR-4
IGROV-1 = test system: IGROV-1
SW-620 = test system: SW-620
SN12C = test system: SN12C
SK-MEL-28 = test system: SK-MEL-28
HL-60 = test system: HL-60
CCRF-CEM = test system: CCRF-CEM
NCI-H460 = test system: NCI-H460
OVCAR-3 = test system: OVCAR-3
SF-268 = test system: SF-268
CAKI-1 = test system: CAKI-1
HOP-92 = test system: HOP-92
SF-539 = test system: SF-539
DMS-273 = test system: DMS-273
M14 = test system: M14
SK-OV-3 = test system: SK-OV-3
SNB-75 = test system: SNB-75
UACC-62 = test system: UACC-62

Measured: GI50

NC(=O)N1N=C2c3ccccc3SC[C@H]2[C@@H]1c1ccccc1
inactive: UO-31 23.9 µM | 786-0 29 µM | ACHN 33.3 µM | RXF 393 2.26 µM | A498 35.1 µM | SF-295 25.1 µM | DLD-1 21.4 µM | TK-10 32.1 µM | NCI-H226 22.2 µM | HOP-62 25.6 µM | HT-29 19.7 µM | COLO 205 20.7 µM | SNB-19 34.5 µM | EKVX 35 µM | NCI-H522 > 10 µM | OVCAR-5 21.3 µM | DMS-114 23.7 µM | KM12 > 10 µM | LOX IMVI 17.5 µM | U-251 22.1 µM | K562 24.2 µM | LXFL 529 26.5 µM | M19-MEL 34.6 µM | XF498 22 µM | SNB-78 33.5 µM | KM-20L2 20.2 µM | UACC-257 18.4 µM | A549 37.3 µM | OVCAR-8 24 µM | HCC 2998 26.9 µM | SR 30 µM | MOLT-4 23.7 µM | Malme-3M 26.9 µM | HCT-116 13.5 µM | NCI-H23 35.6 µM | SK-MEL-5 8.07 µM | RPMI-8226 33.4 µM | OVCAR-4 26.9 µM | IGROV-1 26.6 µM | SW-620 33.7 µM | SN12C 33.8 µM | SK-MEL-28 21.8 µM | HL-60 21.3 µM | CCRF-CEM 23.1 µM | NCI-H460 19.1 µM | OVCAR-3 16.9 µM | SF-268 33.3 µM
23.9 µM: HCT-15

Cc1cc(O)nc(CNC(=O)c2cccc3ccccc23)n1
> 100 µM: HCT-15
inactive: UO-31 > 100 µM | CAKI-1 > 100 µM | HOP-92 > 100 µM | 786-0 > 100 µM | ACHN > 100 µM | RXF 393 > 100 µM | A498 > 100 µM | SF-295 > 100 µM | DLD-1 > 100 µM | TK-10 > 100 µM | NCI-H226 > 100 µM | HOP-62 > 100 µM | HT-29 > 100 µM | COLO 205 > 100 µM | SNB-19 > 100 µM | EKVX > 100 µM | NCI-H522 > 100 µM | LOX IMVI > 100 µM | U-251 > 100 µM | K562 > 100 µM | SF-539 > 100 µM | LXFL 529 > 100 µM | M19-MEL > 100 µM | XF498 > 100 µM | SNB-78 > 100 µM | KM-20L2 > 100 µM | UACC-257 > 100 µM | DMS-273 > 100 µM | A549 > 100 µM | OVCAR-8 > 100 µM | HCC 2998 > 100 µM | M14 > 100 µM | SR > 100 µM | MOLT-4 > 100 µM | Malme-3M > 100 µM | HCT-116 > 100 µM | SK-OV-3 > 100 µM | SNB-75 > 100 µM | NCI-H23 > 100 µM | SK-MEL-5 > 100 µM | UACC-62 > 100 µM | OVCAR-4 > 100 µM | IGROV-1 > 100 µM | SW-620 > 100 µM | SN12C > 100 µM | SK-MEL-28 > 100 µM | HL-60 > 100 µM | CCRF-CEM > 100 µM | NCI-H460 > 100 µM | OVCAR-3 > 100 µM | SF-268 > 100 µM
